Data on 9 compounds can be found in patent US9341616B2, “Sweet taste receptor chimeric proteins and use thereof” (AJINOMOTO CO., INC., priority 2014, dated 2016).

The structures appear in SMILES notation. Residues, ends and D or L forms follow the SMILES beside them.

Chain of h-mT1R2-481/T1R3mosaicC (Q8TE23 with tags, fused parts or gaps with the stated changes limits assumed): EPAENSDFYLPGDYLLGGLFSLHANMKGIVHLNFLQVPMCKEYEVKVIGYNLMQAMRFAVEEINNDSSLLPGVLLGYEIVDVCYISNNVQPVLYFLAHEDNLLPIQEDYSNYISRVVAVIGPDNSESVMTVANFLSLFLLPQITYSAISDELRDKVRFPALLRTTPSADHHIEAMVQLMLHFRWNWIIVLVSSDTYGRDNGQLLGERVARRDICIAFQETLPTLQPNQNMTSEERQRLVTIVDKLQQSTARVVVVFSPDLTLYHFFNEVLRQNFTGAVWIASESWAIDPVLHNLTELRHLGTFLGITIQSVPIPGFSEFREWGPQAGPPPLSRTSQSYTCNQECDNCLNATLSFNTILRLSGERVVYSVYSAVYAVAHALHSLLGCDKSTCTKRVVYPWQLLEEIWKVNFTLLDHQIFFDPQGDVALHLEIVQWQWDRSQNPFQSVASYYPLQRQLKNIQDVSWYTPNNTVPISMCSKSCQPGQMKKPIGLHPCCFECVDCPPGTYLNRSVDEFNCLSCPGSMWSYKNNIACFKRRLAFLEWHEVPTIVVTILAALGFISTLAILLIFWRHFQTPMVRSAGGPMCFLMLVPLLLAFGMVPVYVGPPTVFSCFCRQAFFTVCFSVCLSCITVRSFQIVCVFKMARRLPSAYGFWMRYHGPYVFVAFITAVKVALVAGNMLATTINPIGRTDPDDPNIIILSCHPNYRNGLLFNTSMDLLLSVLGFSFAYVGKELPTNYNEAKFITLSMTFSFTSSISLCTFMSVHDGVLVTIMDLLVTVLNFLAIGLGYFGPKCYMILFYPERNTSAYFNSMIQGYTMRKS
Chain of h-mT1R2-481/T1R3mosaicC (Q925D8 with tags, fused parts or gaps with the stated changes limits assumed): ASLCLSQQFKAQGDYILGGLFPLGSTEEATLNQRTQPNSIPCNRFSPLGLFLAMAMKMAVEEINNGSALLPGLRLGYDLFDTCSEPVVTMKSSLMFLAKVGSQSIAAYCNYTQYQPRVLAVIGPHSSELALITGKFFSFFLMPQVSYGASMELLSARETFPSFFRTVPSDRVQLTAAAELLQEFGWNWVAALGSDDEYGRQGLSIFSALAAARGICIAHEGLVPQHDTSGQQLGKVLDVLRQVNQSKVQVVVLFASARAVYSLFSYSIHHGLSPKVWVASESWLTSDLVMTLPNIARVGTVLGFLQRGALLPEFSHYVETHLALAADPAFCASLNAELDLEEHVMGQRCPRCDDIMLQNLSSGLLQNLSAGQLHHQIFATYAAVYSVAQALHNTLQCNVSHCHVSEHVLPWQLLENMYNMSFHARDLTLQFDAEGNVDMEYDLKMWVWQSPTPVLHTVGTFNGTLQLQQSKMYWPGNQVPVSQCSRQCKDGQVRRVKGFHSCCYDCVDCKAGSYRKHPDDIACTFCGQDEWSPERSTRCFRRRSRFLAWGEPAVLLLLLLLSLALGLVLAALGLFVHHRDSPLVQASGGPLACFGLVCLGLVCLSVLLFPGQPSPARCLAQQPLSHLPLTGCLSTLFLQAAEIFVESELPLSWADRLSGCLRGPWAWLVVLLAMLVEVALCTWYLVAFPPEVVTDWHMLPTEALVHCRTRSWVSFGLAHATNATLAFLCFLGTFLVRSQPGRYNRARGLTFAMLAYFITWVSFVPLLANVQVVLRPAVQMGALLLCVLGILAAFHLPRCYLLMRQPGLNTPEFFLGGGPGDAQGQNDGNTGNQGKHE

This assay addresses h-mT1R2-481/T1R3mosaicC (UniProt Q8TE23+Q925D8, A537S/A558R/A564V/A568V/A570T/A588V/A645S/A649T/A658V/A698V/A702T/A782V/A793V/A807V/C582S/C678S/D172E/D176A/D217E/E221Q/E530V/E534N/E542M/E548N/E725V/F525Y/F541I/F612A/F622V/F665L/F695L/G696N/G701T/H484Y/H528R/H728R/I481V/I486P/I490V/I510L/I518V/I595M/I617V/I643V/I645L/I692L/I695G/I706V/I740A/I803L/K504M/K555R/K565R/K626T/K714N/K818R/K827G/L521P/L560F/L571I/L578I/L610P/L631F/L636F/L639V/L684P/L688V/L702I/L734M/L735F/L800F/L823M/L825Q/M492I/M616G/M644L/M682V/M690V/M744T/M748V/N203E/N231A/N540G/N541S/N547G/N675D/N721H/P545F/P561R/P564S/P638T/P824S/Q195T/Q536L/Q546K/Q550E/Q555R/Q611L/Q676H/Q757R/Q795R/Q831P/R173L/R498S/R632Q/R667S/S168G/S205G/S228A/S501P/S547N/S550A/S576L/S595F/S610P/S628F/S635P/S637R/S663R/S670G/S679G/S681F/S703N/S717H/S727G/S784D/S804G/T199E/T529S/T542A/T549I/T609V/T629S/T642S/T663I/T694M/T705I/T706G/T716I/T813A/V197A/V198A/V508I/V512P/V557A/V573A/V584A/V585L/V613L/V617M/V673M/V687A/V691A/V694A/V718L/V718M/V723A/V729T/V738A/V741L/V774I/V791M/V805L/V812A/V821L/W599R/W676R/W824R/Y533F/Y615F/Y671F/Y680C/Y769S/Y783H/Y794L). As to conditions: Table 6; genes h-mT481/T1R3mC (h-mT1R2-481, T1R3mC); HEK293E cells.
Turning to `CC1=CC(=O)NS(=O)(=O)O1` [Acesulfame K, acesulfame potassium], the S/N was determined as 3.2. For `COC(=O)[C@H](Cc1ccccc1)NC(=O)[C@H](CC(=O)O)NCCCc1ccc(OC)c(O)c1` [Advantame, advantame], the S/N was 9.9. Next, `COC(=O)[C@H](Cc1ccccc1)NC(=O)[C@@H](N)CC(=O)O` [Aspartame, aspartame] (HELM PEPTIDE1{D.F.[CO[*:1]]}$$$$V2.0): 6.3. Next, `COc1ccc(CCC(=O)c2c(O)cc(O[C@@H]3O[C@H](CO)[C@@H](O)[C@H](O)[C@H]3O[C@@H]3O[C@@H](C)[C@H](O)[C@@H](O)[C@H]3O)cc2O)cc1O` [NHDC, neohesperidin dihydrochalcone]: 3.9; `COC(=O)[C@H](Cc1ccccc1)NC(=O)[C@H](CC(=O)O)NCCC(C)(C)C` [Neotame, neotame]: 8.4.

Compound `C[C@H](NC(=Nc1ccc(C#N)cc1)NCC(=O)O)c1ccccc1` [SC-45647, [3-[(S)-1-phenylethyl]-2-(4-cyanophenyl)guanidino]acetic acid] came in with a S/N of 6.1. For the compound `O=C1NS(=O)(=O)c2ccccc21.[Na]` [Saccharin Na, sodium saccharin], the S/N stood at 4.5. `OC[C@H]1O[C@H](O[C@]2(CCl)O[C@H](CCl)[C@@H](O)[C@@H]2O)[C@H](O)[C@@H](O)[C@H]1Cl` [Sucralose, sucralose]: the S/N is on record as 4.8.

Regarding `OC[C@H]1O[C@@](CO)(O[C@H]2O[C@H](CO)[C@@H](O)[C@H](O)[C@H]2O)[C@@H](O)[C@@H]1O` [Sucrose, sucrose], the S/N was determined as 3.4.
